Experimental data reported in article PMC3504484 (Journal of Medicinal Chemistry, 2012).
Read-outs that look alike come from different tables or passages of the source.

Tests used:
[1] = target: T1, 5-HT3A receptor (Homo sapiens, UniProt P46098); assay type: binding
T1 sequence (P46098 24-478): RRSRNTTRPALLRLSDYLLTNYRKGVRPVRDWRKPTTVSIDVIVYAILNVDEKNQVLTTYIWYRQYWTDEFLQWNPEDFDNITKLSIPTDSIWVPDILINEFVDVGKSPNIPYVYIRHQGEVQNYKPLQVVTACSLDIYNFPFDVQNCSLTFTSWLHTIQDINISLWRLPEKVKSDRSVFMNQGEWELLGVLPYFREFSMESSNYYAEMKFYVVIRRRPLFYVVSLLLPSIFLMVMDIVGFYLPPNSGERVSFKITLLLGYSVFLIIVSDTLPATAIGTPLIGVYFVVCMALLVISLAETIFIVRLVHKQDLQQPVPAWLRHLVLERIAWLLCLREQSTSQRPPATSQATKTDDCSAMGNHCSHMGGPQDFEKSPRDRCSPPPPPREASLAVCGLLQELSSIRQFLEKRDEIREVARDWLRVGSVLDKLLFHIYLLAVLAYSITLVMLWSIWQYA

[2] = test system: Glycine; experiment: single point radioligand competition binding; parameters: species or system rat; conditions: 0.1 µM
[3] = compared to quinoline compound 51
[4] = compared to parent isoquinoline compound 52

In the case of `CN1CCN(c2cnc3ccccc3c2)CC1` [Compound 35, 3-(4-Methylpiperazin-1-yl)quinoline], the “fold drop in affinity” value ([1]; compared to (iso)quinolines 51 and 52) is reported as greater than 250 fold.

In the case of `CN1CCN(c2cnc3ccccc3n2)CC1` [Compound 50], the fold lower affinity ([1]; compared to compounds 49, 51 and 52) is reported as 3–10 fold.

In the case of `CN1CCN(c2ccc3c(N)cccc3n2)CC1` [Compound 46, 2-(4-Methylpiperazin-1-yl)quinolin-5-amine], the “fold drop in affinity” value ([1]; compared to compound 30) is reported as roughly 100 fold and the “fold drop in affinity” value [1, 3] is reported as roughly 1000 fold.

With `CN1CCN(c2nc(N)c3ccccc3n2)CC1` [Compound 22] the “selectivity for the 5-HT3A receptor over the H4R” value ([1]; H4R affinity from ref 35) was ~40 000 fold and the “% inhibition of control specific binding ± s.e.m.” value [2] was less than 15%.

With `CNc1cc(N2CCN(C)CC2)nc2ccccc12` [Compound 31, N-Methyl-2-(4-methylpiperazin-1-yl)quinolin-4-amine] the “fold drop in affinity” value [1, 3] was roughly 30 fold.

With `CN1CCN(c2nc(N)c3cc(Cl)ccc3n2)CC1` [Compound 12] the “fold reduction in affinity” value [1] was roughly 10 fold.

In the case of `CN1CCN(c2nc(N(C)C)c3cc(Cl)ccc3n2)CC1` [Compound 13], the “fold reduction in affinity” value ([1]; compared to compound 6) is reported as roughly 10 fold.

`CN1CCN(c2nc(O)c3cc(Cl)ccc3n2)CC1` [Compound 48] was tested, and the “fold reduction in affinity” value [1] was roughly 500 fold.

For `CN1CCN(c2ncc3cc(Cl)ccc3n2)CC1` [Compound 11, 6-Chloro-2-(4-methylpiperazin-1-yl)quinazoline], the “fold reduction in affinity” value ([1]; compared to compound 6) was roughly 10 fold.

For `CNc1nc(N2CCN(C)CC2)nc2ccccc12` [Compound 21, N-Methyl-2-(4-methylpiperazin-1-yl)quinazolin-4-amine], the “fold reduction in affinity” value ([1]; compared to compound 6) was roughly 5 fold.

In the case of `CNc1nc(N2CCN(C)CC2)nc2ccc(Cl)cc12` [Compound 6], the “fold increase in affinity” value ([1]; compared to compound 1) is reported as 16 fold.

In the case of `CNc1nc(N2CCN(C)CC2)cc2ccccc12` [Compound 40, N-Methyl-3-(4-methylpiperazin-1-yl)isoquinolin-1-amine], the fold lower affinity [1, 4] is reported as roughly 5 fold.

Molecule `CN1CCN(c2cc3ccccc3c(N)n2)CC1` [Compound 39, 3-(4-Methylpiperazin-1-yl)isoquinolin-1-amine] has a fold lower affinity [1, 4] of 140 fold.
